What all share (format): biochemical
One assay addresses T1, MAO-B (Homo sapiens, UniProt P27338).
T1 construct: purchased Sigma-Aldrich Co. LLC
T1 sequence (P27338 1-520): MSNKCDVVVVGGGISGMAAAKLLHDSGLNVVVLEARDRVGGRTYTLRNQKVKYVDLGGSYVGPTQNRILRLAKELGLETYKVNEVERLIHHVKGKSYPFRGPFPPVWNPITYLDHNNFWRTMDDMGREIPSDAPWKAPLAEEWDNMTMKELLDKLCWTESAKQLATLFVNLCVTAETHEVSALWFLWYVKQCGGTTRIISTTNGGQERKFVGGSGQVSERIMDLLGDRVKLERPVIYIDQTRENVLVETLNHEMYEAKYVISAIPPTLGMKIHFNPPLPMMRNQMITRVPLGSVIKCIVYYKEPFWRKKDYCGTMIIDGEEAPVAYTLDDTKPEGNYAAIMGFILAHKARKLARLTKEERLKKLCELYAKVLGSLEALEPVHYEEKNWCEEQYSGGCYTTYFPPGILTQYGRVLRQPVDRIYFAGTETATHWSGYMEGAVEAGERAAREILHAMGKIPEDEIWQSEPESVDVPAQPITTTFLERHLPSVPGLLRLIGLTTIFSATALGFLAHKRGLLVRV
In words: Measurement of MAO-B inhibitory activity (MAO-Glo Assay). An outline of the steps: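 Percent inhibition was calculated from luciferin-based luminescence, corrected with a blank lacking enzyme and a control lacking compound. The reaction ran 60 min at room temperature after adding MAO substrate (16 µM as added). This followed a 10 min compound–enzyme preincubation in HEPES pH 7.5 buffer.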

The target in the next assay is T2, human LSD1(171-852) (Homo sapiens, UniProt O60341).
T2 construct: to give hLSD1(171-852) purified product; made in house; host or cells: Escherichia coli C43(DE3) pLysS
In words: Measurement of LSD1 inhibitory activity (time-resolved fluorescence, biotin-histone H3 mono methylated K4 peptide). Conditions: read-out: LSD1 IC50 value.

Another assay concerns the target T3, MAO-A (Homo sapiens, UniProt P21397).
T3 construct: purchased Sigma-Aldrich Co. LLC
T3 sequence (P21397 1-527): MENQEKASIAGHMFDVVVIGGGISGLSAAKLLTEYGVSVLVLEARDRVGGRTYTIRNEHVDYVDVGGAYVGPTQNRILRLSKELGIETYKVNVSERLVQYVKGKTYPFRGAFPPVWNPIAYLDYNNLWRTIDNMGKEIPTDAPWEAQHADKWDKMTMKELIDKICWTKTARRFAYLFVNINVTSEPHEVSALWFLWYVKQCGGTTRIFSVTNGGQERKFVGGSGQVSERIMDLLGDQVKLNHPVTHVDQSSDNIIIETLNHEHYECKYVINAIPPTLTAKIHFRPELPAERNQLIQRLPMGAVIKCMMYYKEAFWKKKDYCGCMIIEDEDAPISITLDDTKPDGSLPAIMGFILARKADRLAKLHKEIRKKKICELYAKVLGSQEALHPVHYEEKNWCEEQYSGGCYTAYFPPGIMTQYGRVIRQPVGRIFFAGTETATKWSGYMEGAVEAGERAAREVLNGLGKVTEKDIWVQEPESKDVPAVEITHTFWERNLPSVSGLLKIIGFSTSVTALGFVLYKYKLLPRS
In words: Measurement of MAO-A inhibitory activity (MAO-Glo Assay). An outline of the steps: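 Luminescent MAO-Glo read-out: % inhibition computed from counts relative to enzyme-only control and enzyme-free blank. Compound and 400 ng MAO-A in HEPES pH 7.5 with 5% glycerol stood 10 min at room temperature before MAO substrate (160 μM stock) started a 60 min reaction.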

pIC50: −log10 of the molar value. Counter-ions that a name gives are not always drawn.

From US9682925B2, “Cyclopropaneamine compound” (TAKEDA PHARMACEUTICAL COMPANY LIMITED, priority 2011, dated 2017) come the findings set out here.

One may read the pIC50 as the negative decadic logarithm of the IC50, by convention in mol/L. Take `COCC(C)N[C@@H]1C[C@H]1c1ccc(NC(=O)c2ccc(-c3ccccc3)cc2)cc1` (relative stereo) [Example 48, N-(4-{trans-2-[(2-methoxy-1-methyl-ethyl)amino]cyclo-propyl}phenyl)-biphenyl-4-carboxamide]: the pIC50 on MAO-B is 5.42; at human LSD1(171-852), greater than 7.00; at MAO-A it was 5.37.
The corresponding values for `CCC(CC)N[C@@H]1C[C@H]1c1ccc(NC(=O)c2ccc(-c3ccccc3)cc2)cc1` (relative stereo) [Example 49, N-(4-{trans-2-[(1-ethylpropyl)amino]-cyclopropyl}phenyl)-biphenyl-4-carboxamide] are less than 5.00, greater than 7.00 and less than 5.00.
The matching figures for `CN1CCC(N[C@@H]2C[C@H]2c2ccc(NC(=O)c3ccc(-c4ccccc4)cc3)cc2)CC1` (relative stereo) [Example 50, N-(4-{trans-2-[(1-methylpiperidin-4-yl)amino]cyclo-propyl}phenyl)-biphenyl-4-carboxamide]: less than 5.00, greater than 7.00 and less than 5.00.
`O=C(Nc1ccc([C@@H]2C[C@H]2NC2CCN(Cc3ccccc3)CC2)cc1)c1ccc(-c2ccccc2)cc1` (relative stereo) [Example 51, N-(4-{trans-2-[(1-benzylpiperidin-4-yl)amino]cyclo-propyl}phenyl)-biphenyl-4-carboxamide]: the results for the pIC50 against MAO-B, on human LSD1(171-852) and against MAO-A were less than 5.00, 7.00 and less than 5.00, respectively.
As for `O=C(Nc1ccc([C@@H]2C[C@H]2NCCOCc2ccccc2)cc1)c1ccc(-c2ccccc2)cc1` (relative stereo) [Example 52, N-{4-[trans-2-{[2-(benzyloxy)ethyl]-amino}cyclopropyl]-phenyl}biphenyl-4-carboxamide], the results for the pIC50 against MAO-B, at human LSD1(171-852) and at MAO-A were less than 5.00, 6.80 and less than 5.00, respectively.
Take `O=C(Nc1ccc([C@@H]2C[C@H]2NCc2ccc(Cl)c(Cl)c2)cc1)c1ccc(-c2ccccc2)cc1` (relative stereo) [Example 53, N-(4-{trans-2-[(3,4-dichloro-benzyl)amino]-cyclopropyl}phenyl)-biphenyl-4-carboxamide]: the pIC50 is 5.47 at MAO-B, 6.64 on human LSD1(171-852) and 5.40 at MAO-A.
The corresponding values for `COc1ccc(CN[C@@H]2C[C@H]2c2ccc(NC(=O)c3ccc(-c4ccccc4)cc3)cc2)cn1` (relative stereo) [Example 54] are 5.82, greater than 7.00 and 6.07.
The matching figures for `C=CCOC(=O)N1CCC(N[C@@H]2C[C@H]2c2ccc(NC(=O)c3ccc(-c4ccccc4)cc3)cc2)CC1` (relative stereo) [Example 55, allyl 4-{[trans-2-{4-[(biphenyl-4-yl-carbonyl)amino]-phenyl}cyclo-propyl]amino}-piperidine-1-carboxylate]: less than 5.00, 6.89 and less than 5.00.
The corresponding values for `CC(COc1ccccc1)N[C@@H]1C[C@H]1c1ccc(NC(=O)c2ccc(-c3ccccc3)cc2)cc1` (relative stereo) [Example 56, N-(4-{trans-2-[(1-methyl-2-phenoxyethyl)-amino]cyclo-propyl}phenyl)-biphenyl-4-carboxamide] are less than 5.00, 6.59 and less than 5.00.
Regarding `O=C(Nc1ccc([C@@H]2C[C@H]2N(CC2CC2)CC2CC2)cc1)c1ccc(-c2ccccc2)cc1` (relative stereo) [Example 60, N-(4-{trans-2-[bis(cyclopropylmethyl)amino]cyclopropyl}phenyl)biphenyl-4-carboxamide hydrochloride], the pIC50 was less than 5.00 against MAO-B, 5.72 at human LSD1(171-852) and less than 5.00 on MAO-A.
With `O=C(Nc1ccc([C@@H]2C[C@H]2NC2CCOCC2)cc1)c1ccc(-c2ccccc2)cc1` (relative stereo) [Example 61, N-{4-[trans-2-(tetrahydro-2H-pyran-4-ylamino)cyclopropyl]phenyl}biphenyl-4-carboxamide hydrochloride], the pIC50 is 5.48 at MAO-B, greater than 7.00 at human LSD1(171-852) and 5.66 on MAO-A.
The matching figures for `CC(=O)N1CCC(N[C@@H]2C[C@H]2c2ccc(NC(=O)c3ccc(-c4ccccc4)cc3)cc2)CC1` (relative stereo) [Example 62, N-(4-{trans-2-[(1-acetylpiperidin-4-yl)amino]cyclopropyl}phenyl)biphenyl-4-carboxamide hydrochloride]: less than 5.00, greater than 7.00 and less than 5.00.
Turning to `O=C(Nc1ccc([C@@H]2C[C@H]2NC2CCN(CC(F)(F)F)CC2)cc1)c1ccc(-c2ccccc2)cc1` (relative stereo) [Example 63, N-{4-[trans-2-{[1-(2,2,2-trifluoroethyl)piperidin-4-yl]amino}cyclopropyl]phenyl}biphenyl-4-carboxamide hydrochloride], the pIC50 against MAO-B is less than 5.00; at human LSD1(171-852) it was greater than 7.00; on MAO-A it was less than 5.00.
Regarding `CN(C(=O)c1ccc(-c2ccccc2)cc1)c1ccc([C@@H]2C[C@H]2NCC2CC2)cc1` (relative stereo) [Example 64, N-(4-{trans-2-[(cyclopropylmethyl)amino]cyclopropyl}phenyl)-N-methylbiphenyl-4-carboxamide hydrochloride], the pIC50 against MAO-B is less than 5.00; on human LSD1(171-852), 6.70; against MAO-A, 5.07.
In the case of `O=C(Nc1ccc([C@@H]2C[C@H]2NCC2CC2)cc1)c1cccc(C(F)(F)F)c1` (relative stereo) [Example 65, N-(4-{trans-2-[(cyclopropylmethyl)amino]cyclopropyl}phenyl)-3-(trifluoromethyl)benzamide hydrochloride], the pIC50 was 5.02 at MAO-B, greater than 7.00 on human LSD1(171-852) and 5.07 on MAO-A.
The matching figures for `O=C(Nc1ccc([C@@H]2C[C@H]2NCc2c[nH]cn2)cc1)c1ccc(-c2ccccc2)cc1` (relative stereo) [Example 66, N-(4-{trans-2-[(1H-imidazol-4-ylmethyl)amino]cyclopropyl}phenyl)biphenyl-4-carboxamide dihydrochloride]: less than 5.00, greater than 7.00 and less than 5.00.
Take `O=C(Nc1ccc([C@@H]2C[C@H]2NCc2ccccc2F)cc1)c1cccc(C(F)(F)F)c1` (relative stereo) [Example 67, N-(4-{trans-2-[(2-fluorobenzyl)amino]cyclopropyl}phenyl)-3-(trifluoromethyl)benzamide hydrochloride]: the pIC50 is less than 5.00 at MAO-B, greater than 7.00 at human LSD1(171-852) and less than 5.00 on MAO-A.
With `Cc1ccc(C(=O)Nc2ccc([C@@H]3C[C@H]3NCC3CC3)cc2)cc1` (relative stereo) [Example 68, N-(4-{trans-2-[(cyclopropylmethyl)amino]cyclopropyl}phenyl)-4-methylbenzamide hydrochloride], the pIC50 at MAO-B was less than 5.00; on human LSD1(171-852) it was greater than 7.00; against MAO-A it was less than 5.00.
Take `O=C(Nc1ccc([C@@H]2C[C@H]2NCC2CC2)cc1)c1ccc(C(F)(F)F)cc1` (relative stereo) [Example 69, N-(4-{trans-2-[(cyclopropylmethyl)amino]cyclopropyl}phenyl)-4-(trifluoromethyl)benzamide hydrochloride]: the pIC50 at MAO-B is less than 5.00; at human LSD1(171-852), greater than 7.00; against MAO-A, less than 5.00.
Take `CC(C)(C)c1ccc(C(=O)Nc2ccc([C@@H]3C[C@H]3NCC3CC3)cc2)cc1` (relative stereo) [Example 70, 4-tert-butyl-N-(4-{trans-2-[(cyclopropylmethyl)amino]cyclopropyl}phenyl)benzamide hydrochloride]: the pIC50 was less than 5.00 against MAO-B, greater than 7.00 on human LSD1(171-852) and less than 5.00 against MAO-A.
